Columns and labels:
[1] = test system: P. falciparum Dd2^attB parent; experiment: Disruption of [Na^+]i regulation, SBFI-loaded trophozoites, Dd2^attB parent; type: cell-based; settings: Plasmodium falciparum, from fitted curves, read-out: IC50 for disruption of Na^+ regulation by NITD246
Protocol: The [Na^+]i of saponin-isolated parasites was measured at 37°C using the Na^+-sensitive dye SBFI (Molecular Probes, Invitrogen) in conjunction with a PerkinElmer LS 50B Fluorescence Spectrometer fitted with a Dual Excitation Fast Filter. Saponin-isolated parasites were loaded with SBFI by suspension (at 1.40–1.80 × 10^8 cells/mL) for 20 min at 37°C in bicarbonate-free RPMI1640 supplemented with 20 mM D-glucose, 0.2 mM hypoxanthine, 25 mM HEPES, and 25 mg/L gentamycin sulfate (pH 7.10), to which SBFI-acetoxymethyl ester (5.5 μM) and Pluronic F-127 (0.01% w/v) were added. The dye-loaded cells were washed twice (12,000 × g, 0.5 min) in bicarbonate-free RPMI then incubated for a further 20 min at 37°C to allow for complete de-esterification of the dye before being resuspended at a final cell concentration of 1.5–2.5 × 10^7 cells/mL in standard saline. The dye-loaded cells were excited at 340 nm and 380 nm with fluorescence recorded at 490 nm. Calibration of the relationship between the 340/380 nm fluorescence ratio and [Na^+]i (see Figures S1A–S1C) was carried out as described previously ([Diarra et al., 2001]; [Harootunian et al., 1989]). Several inhibitors used in this study caused inner filter effects ([Gu and Kenny, 2009]; [Srinivas and Mutharasan, 1987]); in these cases calibration curves were generated with the inhibitors present. […]

P. falciparum parasites = experiment: Parasite proliferation, [^3H]hypoxanthine incorporation assay, 48 hr; type: cell-based; settings: Plasmodium falciparum; mean ± SEM, number of independent experiments in parentheses; read-out: IC50 for inhibition of parasite proliferation
Protocol: Parasite growth assays were performed in 96-well plates over 48 hr (commencing at the ring stage) using a standard [^3H]hypoxanthine incorporation assay ([Desjardins et al., 1979]).
Dose-response curves were obtained using the expression y = y^min + y^max/(1 + [C/IC50]^b), where y is the parameter being measured (parasite proliferation, Na^+ influx, or ATPase activity), y^min is the minimum value of y, y^max is the maximum value of y, C is the concentration of the moiety that was varied in the experiment, IC50 is the concentration at which y was reduced to 50% of y^max, and b is a fitted constant.

SMILES: C[C@H]1Cc2c([nH]c3cc(F)c(F)cc23)[C@@]2(N1)C(=O)Nc1ccc(Cl)cc12 [NITD246]
- IC50 [1]: 1.7 ± 0.5 nM
- IC50 (P. falciparum parasites): 0.12 ± 0.02 nM
